Legend:
Test in all cases: relative viability (nuclei count vs DMSO), 5 days (fraction); higher = more cells survive
[1] = system: EKVX
How it was run: (§1)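 Lung cancer cell lines, seeded in 1536-well plates, were treated the following day by pin tool with a single drug or with five library-drug doses (not always all listed) in √10 steps on top of a fixed anchor-drug dose. Cells were fixed and nuclei stained in one step after 5 days, and nuclei were counted. Relative viability is the nuclei count for treated wells divided by that for vehicle wells, reported as medians of duplicate plates.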

[2] = system: LCLC-97TM1
How it was run: as §1

[3] = system: NCI-H1437
How it was run: as §1

[4] = system: NCI-H1650
How it was run: as §1

[5] = system: NCI-H1666
How it was run: as §1

[6] = system: NCI-H1792
How it was run: as §1

[7] = system: NCI-H1915
How it was run: as §1

[8] = system: NCI-H1975
How it was run: as §1

[9] = system: NCI-H2342
How it was run: as §1

[10] = system: NCI-H23
How it was run: as §1

[11] = system: NCI-H322M
How it was run: as §1

[12] = system: NCI-H358
How it was run: as §1

[13] = system: NCI-H441
How it was run: as §1

[14] = system: NCI-H460
How it was run: as §1

[15] = system: NCI-H520
How it was run: as §1

[16] = system: NCI-H522
How it was run: as §1

[17] = system: NCI-H596
How it was run: as §1

[18] = system: NCI-H647
How it was run: as §1

[19] = system: NCI-H661
How it was run: as §1

[20] = system: NCI-H838
How it was run: as §1

[21] = system: PC-3 [JPC-3]
How it was run: as §1

[22] = system: SK-LU-1
How it was run: as §1

`CN1CCN(CCOc2cc(OC3CCOCC3)c3c(Nc4c(Cl)ccc5c4OCO5)ncnc3c2)CC1` [Saracatinib] + Nc1nc2[nH]cc(CCc3ccc(C(=O)N[C@@H](CCC(=O)O)C(=O)O)cc3)c2c(=O)[nH]1 [Pemetrexed] (partner 0.2 µM) showed a relative viability ([1]; first compound 0.02 µM) of 0.429, a relative viability ([1]; first compound 0.6325 µM) of 0.498 and a relative viability ([1]; first compound 2 µM) of 0.369. The relative viability ([2]; first compound 0.02 µM) was 0.18, the relative viability ([2]; first compound 0.2 µM) was 0.134 and the relative viability ([2]; first compound 0.6325 µM) was 0.172. The relative viability ([2]; first compound 2 µM) was 0.136, the relative viability ([3]; first compound 0.02 µM) was 0.329 and the relative viability ([3]; first compound 0.2 µM) was 0.247. The relative viability ([3]; first compound 0.6325 µM) was 0.277, the relative viability ([3]; first compound 2 µM) was 0.286 and the relative viability ([4]; first compound 0.02 µM) was 0.343. The relative viability ([4]; first compound 0.2 µM) was 0.357, the relative viability ([4]; first compound 0.6325 µM) was 0.318 and the relative viability ([4]; first compound 2 µM) was 0.307. For the same molecule, the relative viability ([5]; first compound 0.02 µM) was 0.877, the relative viability ([5]; first compound 0.2 µM) was 0.508 and the relative viability ([5]; first compound 0.6325 µM) was 0.878. It also gave a relative viability ([5]; first compound 2 µM) of 0.841, a relative viability ([6]; first compound 0.02 µM) of 1.06 and a relative viability ([6]; first compound 0.2 µM) of 0.644. For the same molecule, the relative viability ([6]; first compound 0.6325 µM) was 1.12, the relative viability ([6]; first compound 2 µM) was 0.788 and the relative viability ([7]; first compound 0.02 µM) was 0.477. For the same molecule, the relative viability ([7]; first compound 0.2 µM) was 0.4, the relative viability ([7]; first compound 0.6325 µM) was 0.501 and the relative viability ([7]; first compound 2 µM) was 0.481. For the same molecule, the relative viability ([8]; first compound 0.02 µM) was 0.276, the relative viability ([8]; first compound 0.2 µM) was 0.265 and the relative viability ([8]; first compound 0.6325 µM) was 0.275. For the same molecule, the relative viability ([8]; first compound 2 µM) was 0.253, the relative viability ([9]; first compound 0.02 µM) was 0.83 and the relative viability ([9]; first compound 0.2 µM) was 0.673. For the same molecule, the relative viability ([9]; first compound 0.6325 µM) was 0.789, the relative viability ([9]; first compound 2 µM) was 0.84 and the relative viability ([10]; first compound 0.02 µM) was 0.683. The relative viability ([10]; first compound 0.6325 µM) was 0.613, the relative viability ([10]; first compound 2 µM) was 0.519 and the relative viability ([11]; first compound 0.02 µM) was 0.574. The relative viability ([11]; first compound 0.2 µM) was 0.55, the relative viability ([11]; first compound 0.6325 µM) was 0.505 and the relative viability ([11]; first compound 2 µM) was 0.32. For the same molecule, the relative viability ([12]; first compound 0.02 µM) was 0.193, the relative viability ([12]; first compound 0.2 µM) was 0.166 and the relative viability ([12]; first compound 0.6325 µM) was 0.156. For the same molecule, the relative viability ([12]; first compound 2 µM) was 0.151, the relative viability ([13]; first compound 0.02 µM) was 0.28 and the relative viability ([13]; first compound 0.2 µM) was 0.238. The relative viability ([13]; first compound 0.6325 µM) was 0.316, the relative viability ([13]; first compound 2 µM) was 0.272 and the relative viability ([14]; first compound 0.02 µM) was 0.0672. For the same molecule, the relative viability ([14]; first compound 0.2 µM) was 0.0368, the relative viability ([14]; first compound 0.6325 µM) was 0.0538 and the relative viability ([14]; first compound 2 µM) was 0.0548. The relative viability ([15]; first compound 0.02 µM) was 0.625, the relative viability ([15]; first compound 0.2 µM) was 0.508 and the relative viability ([15]; first compound 0.6325 µM) was 0.474. The relative viability ([15]; first compound 2 µM) was 0.337, the relative viability ([16]; first compound 0.02 µM) was 1.15 and the relative viability ([16]; first compound 0.2 µM) was 0.918. It also gave a relative viability ([16]; first compound 0.6325 µM) of 0.735, a relative viability ([16]; first compound 2 µM) of 0.747 and a relative viability ([17]; first compound 0.02 µM) of 0.522. It also gave a relative viability ([17]; first compound 0.2 µM) of 0.49, a relative viability ([17]; first compound 0.6325 µM) of 0.471 and a relative viability ([17]; first compound 2 µM) of 0.479. For the same molecule, the relative viability ([18]; first compound 0.02 µM) was 0.191, the relative viability ([18]; first compound 0.2 µM) was 0.148 and the relative viability ([18]; first compound 0.6325 µM) was 0.159. It also gave a relative viability ([18]; first compound 2 µM) of 0.138, a relative viability ([19]; first compound 0.02 µM) of 0.942 and a relative viability ([19]; first compound 0.2 µM) of 0.84. The relative viability ([19]; first compound 0.6325 µM) was 0.846, the relative viability ([19]; first compound 2 µM) was 0.699 and the relative viability ([20]; first compound 0.02 µM) was 0.254. For the same molecule, the relative viability ([20]; first compound 0.2 µM) was 0.204, the relative viability ([20]; first compound 0.6325 µM) was 0.248 and the relative viability ([20]; first compound 2 µM) was 0.227. For the same molecule, the relative viability ([21]; first compound 0.02 µM) was 1.04, the relative viability ([21]; first compound 0.2 µM) was 0.709 and the relative viability ([21]; first compound 0.6325 µM) was 0.656. It also gave a relative viability ([21]; first compound 2 µM) of 0.469, a relative viability ([22]; first compound 0.02 µM) of 0.918 and a relative viability ([22]; first compound 0.2 µM) of 0.868. For the same molecule, the relative viability ([22]; first compound 0.6325 µM) was 0.654 and the relative viability ([22]; first compound 2 µM) was 0.557.
